Data from ChEMBL document CHEMBL3885881, “DrugMatrix”.

Organism: Rattus norvegicus
Assay: DrugMatrix - Regimen: Daily Repeat
Format: toxicity, organism-based, Sprague-Dawley
Design: regimen Daily Repeat, gender Male, age 6-8 weeks
Conditions: in vivo, po, 0 mg/kg, route oral GAVAGE, dose level Control, vehicle 100 % WATER; for ABSOLUTE BASOPHIL / ABSOLUTE EOSINOPHIL / ABSOLUTE LYMPHOCYTE / ABSOLUTE MONOCYTE / ABSOLUTE SEGMENTED NEUTROPHIL / BASOPHIL / EOSINOPHIL / ERYTHROCYTE COUNT / HEMATOCRIT / HEMOGLOBIN / LEUKOCYTE COUNT / LYMPHOCYTE / MEAN CORPUSCULAR HEMOGLOBIN / MEAN CORPUSCULAR HEMOGLOBIN CONCENTRATION / MEAN CORPUSCULAR VOLUME / MONOCYTE / NEUTROPHIL / NUCLEATED RED BLOOD CELLS / PLATELET COUNT: tissue Blood; for ALANINE AMINOTRANSFERASE / ALBUMIN / ALKALINE PHOSPHATASE / ASPARTATE AMINOTRANSFERASE / BLOOD UREA NITROGEN / CARBON DIOXIDE / CHLORIDE / CHOLESTEROL / CREATINE PHOSPHOKINASE / CREATININE / GLUCOSE / LACTATE DEHYDROGENASE / LIPASE / PHOSPHORUS / POTASSIUM / SODIUM / TOTAL BILIRUBIN / TOTAL PROTEIN / URIC ACID: tissue Plasma

## CC[C@H]1OC(=O)[C@H](C)[C@@H](O[C@H]2C[C@@](C)(OC)[C@@H](O)[C@H](C)O2)[C@H](C)[C@@H](O[C@@H]2O[C@H](C)C[C@H](N(C)C)[C@H]2O)[C@](C)(O)C[C@@H](C)CN(C)[C@H](C)[C@@H](O)[C@]1(C)O [AZITHROMYCIN]
72 h, time 3 day
  ABSOLUTE BASOPHIL: 0 CELLS/uL
  ABSOLUTE EOSINOPHIL: 33.67 CELLS/uL
  ABSOLUTE LYMPHOCYTE: 11257.17 CELLS/uL
  ABSOLUTE MONOCYTE: 72.17 CELLS/uL
  ABSOLUTE SEGMENTED NEUTROPHIL: 1220.33 CELLS/uL
  BASOPHIL: 0%
  EOSINOPHIL: 0.33%
  ERYTHROCYTE COUNT: 5 x10E6/uL
  HEMATOCRIT: 32.62%
  HEMOGLOBIN: 12.83 G/DL
  LEUKOCYTE COUNT: 12.58 x10E3/uL
  LYMPHOCYTE: 89%
  MEAN CORPUSCULAR HEMOGLOBIN: 25.67 pg
  MEAN CORPUSCULAR HEMOGLOBIN CONCENTRATION: 39.35 G/DL
  MEAN CORPUSCULAR VOLUME: 65.23 fL
  MONOCYTE: 0.67%
  NEUTROPHIL: 10%
  NUCLEATED RED BLOOD CELLS: 0 /100WBC
  PLATELET COUNT: 1162.5 x10E3/uL
  ALANINE AMINOTRANSFERASE: 45.33 u/L
  ALBUMIN: 3.95 G/DL
  ALKALINE PHOSPHATASE: 356.17 u/L
  ASPARTATE AMINOTRANSFERASE: 81 u/L
  BLOOD UREA NITROGEN: 11 mg/dL
  CARBON DIOXIDE: 29.83 mmol/L
  CHLORIDE: 97.8 MEQ/L
  CHOLESTEROL: 65.17 mg/dL
  CREATINE PHOSPHOKINASE: 211.33 u/L
  CREATININE: 0.11 mg/dL
  GLUCOSE: 164.67 mg/dL
  LACTATE DEHYDROGENASE: 143.17 u/L
  LIPASE: 10.17 u/L
  PHOSPHORUS: 10.88 mg/dL
  POTASSIUM: 6.08 MEQ/L
  SODIUM: 141.54 MEQ/L
  TOTAL BILIRUBIN: 0.23 mg/dL
  TOTAL PROTEIN: 5.65 G/DL
  URIC ACID: 1 mg/dL
120 h, time 5 day
  ABSOLUTE BASOPHIL: 0 CELLS/uL
  ABSOLUTE EOSINOPHIL: 48.67 CELLS/uL
  ABSOLUTE LYMPHOCYTE: 9267.83 CELLS/uL
  ABSOLUTE MONOCYTE: 194.33 CELLS/uL
  ABSOLUTE SEGMENTED NEUTROPHIL: 572.5 CELLS/uL
  BASOPHIL: 0%
  EOSINOPHIL: 0.33%
  ERYTHROCYTE COUNT: 5.41 x10E6/uL
  HEMATOCRIT: 36.17%
  HEMOGLOBIN: 13.9 G/DL
  LEUKOCYTE COUNT: 10.08 x10E3/uL
  LYMPHOCYTE: 92.17%
  MEAN CORPUSCULAR HEMOGLOBIN: 25.73 pg
  MEAN CORPUSCULAR HEMOGLOBIN CONCENTRATION: 38.45 G/DL
  MEAN CORPUSCULAR VOLUME: 66.97 fL
  MONOCYTE: 1.83%
  NEUTROPHIL: 5.67%
  NUCLEATED RED BLOOD CELLS: 0.33 /100WBC
  PLATELET COUNT: 1122.33 x10E3/uL
  ALANINE AMINOTRANSFERASE: 52.83 u/L
  ALBUMIN: 4.12 G/DL
  ALKALINE PHOSPHATASE: 367.33 u/L
  ASPARTATE AMINOTRANSFERASE: 88 u/L
  BLOOD UREA NITROGEN: 12.67 mg/dL
  CARBON DIOXIDE: 33.67 mmol/L
  CHLORIDE: 97 MEQ/L
  CHOLESTEROL: 67.5 mg/dL
  CREATINE PHOSPHOKINASE: 358.67 u/L
  CREATININE: 0.14 mg/dL
  GLUCOSE: 152.33 mg/dL
  LACTATE DEHYDROGENASE: 180 u/L
  LIPASE: 10.5 u/L
  PHOSPHORUS: 10.63 mg/dL
  POTASSIUM: 5.99 MEQ/L
  SODIUM: 141.85 MEQ/L
  TOTAL BILIRUBIN: 0.2 mg/dL
  TOTAL PROTEIN: 6.18 G/DL
  URIC ACID: 0.52 mg/dL
